For two compounds, melting point results are on record in US6849619B2, “Substituted pyridoindoles as serotonin agonists and antagonists” (Bristol-Myers Squibb Company, priority 2000, dated 2005).

As usually defined, the melting point is the temperature of the solid-liquid transition.

Structures are written as SMILES.

Compound `CCOc1ncc(C)cc1Nc1cc2c3c(c1)[C@@H]1CNCC[C@@H]1N3CCOC2` [Example 173, (7bR,11aS)-N-(2-Ethoxy-5-methyl-3-pyridinyl)-1,2,7b,8,9,10,11,11a-octahydro-4H-[1,4]oxazepino[6,5,4-hi]pyrido[4,3b]indole-6-amine] registered a melting point of 59 to 68 °C.
Compound `COc1ncc(C)cc1Nc1cc2c3c(c1)[C@@H]1CNCC[C@@H]1N3CCOC2` [Example 172, (7bR,11aS)-N-(2-Methoxy-5-methyl-3-pyridinyl)-1,2,7b,8,9,10,11,11a-octahydro-4H-[1,4]oxazepino[6,5,4-hi]pyrido[4,3-b]indole-6-amine] registered a melting point of 122 to 124 °C.
